System: skin microbiome
Test: Conversion of crocin to crocetin by the skin microbiome (in vitro)
Assay type: in vitro ADME
Description: Sampling of skin microbiome was performed on 7 volunteers with a sterile gauze impregnated with NaCl in 5 areas: forehead, cheek, nose, neck, forearm. All samples were combined to obtain a representative skin microbiota composition. The thus obtained microbiome was cultured in liquid medium (buffered HT medium) at 30° C. in the presence of crocin. Supernatants were collected regularly and analyzed by HPLC-MS to detect crocin and crocetin.

SMILES	concentration, % of maximum concentration detected (skin microbiome culture with crocin, 42 h) [%]	concentration, % of maximum concentration detected (skin microbiome culture with crocin, 66 h) [%]	concentration, % of maximum concentration detected (skin microbiome culture with crocin, 90 h) [%]	concentration, % of maximum concentration detected (skin microbiome culture with crocin, 162 h) [%]	concentration, % of maximum concentration detected (skin microbiome culture with crocin, 186 h) [%]	concentration, % of maximum concentration detected (skin microbiome culture with crocin, 210 h) [%]	time for complete transformation to crocetin (human) [h]	concentration, % of maximum concentration detected (human, 0 h) [%]	concentration, % of maximum concentration detected (human, 18 h) [%]	concentration, % of maximum concentration detected (human, 42 h) [%]	concentration, % of maximum concentration detected (human, 66 h) [%]	concentration, % of maximum concentration detected (human, 90 h) [%]
CC(/C=C/C=C(\C)C(=O)O)=C\C=C\C=C(C)\C=C\C=C(/C)C(=O)O [Crocetin]	0.7	7.9	30.5	65.3	101.3	101.3						
CC(/C=C/C=C(\C)C(=O)O[C@@H]1O[C@H](CO[C@@H]2O[C@H](CO)[C@@H](O)[C@H](O)[C@H]2O)[C@@H](O)[C@H](O)[C@H]1O)=C\C=C\C=C(C)\C=C\C=C(/C)C(=O)O[C@@H]1O[C@H](CO[C@@H]2O[C@H](CO)[C@@H](O)[C@H](O)[C@H]2O)[C@@H](O)[C@H](O)[C@H]1O [Crocin]							≤ 210	100	100	47.5	2.9	0.1

— patent US20230101236A1, “COSMETIC COMPOSITION” (GIVAUDAN SA, priority 2020, published 2023)
